Test results as given in PMC9653733, “Characterization of a Potent, Selective, and Safe Inhibitor, Ac15(Az8)2, in Reversing Multidrug Resistance Mediated by Breast Cancer Resistance Protein (BCRP/ABCG2)” (International Journal of Molecular Sciences, 2022).
Where “and” joins values, the source holds several entries; their conditions need not be identical. Identical values can stand only once.

Assays:
S1M180 cells = experiment: Cytotoxicity of anticancer drugs in S1M180 (0.1% DMSO); type: cell-based, human
Method: In total, 6500 cells of S1M180 or MCF7-MX100 were incubated with various doses of topotecan or DOX and modulators. The final volume in each well of 96-well plates was 200 µL. The plates were then incubated for 5 days at 37 °C. The CellTiter 96 AQueous Assay (Promega) was used to measure cell proliferation. According to the manufacturer’s instructions, MTS (2 mg/mL) and PMS (0.92 mg/mL) were mixed in a ratio of 20:1. An aliquot (10 μL) of the freshly prepared MTS/PMS mixture was added into each well, and the plate was incubated for 2 h at 37 °C. Optical absorbance at 490 nm was then recorded with microplate absorbance reader (Bio-Rad). IC50 values were calculated from the dose-response curves of MTS assays (Prism 4.0).

S1 cells = experiment: Cytotoxicity of anticancer drugs in parental S1 (0.1% DMSO); type: cell-based, human
BCRP (S1M180 cells) = biological target: T1, BCRP (S1M180 cells) (Homo sapiens, UniProt Q9UNQ0, R482G); experiment: Drug accumulation assay in S1M180; type: cell-based; conditions: 20 µM DOX, 1 h; p < 0.001
T1 construct: endogenous in cells; host or cells: S1M180 (human colon carcinoma, mitoxantrone-selected)
T1 sequence (Q9UNQ0 1-655 R482G): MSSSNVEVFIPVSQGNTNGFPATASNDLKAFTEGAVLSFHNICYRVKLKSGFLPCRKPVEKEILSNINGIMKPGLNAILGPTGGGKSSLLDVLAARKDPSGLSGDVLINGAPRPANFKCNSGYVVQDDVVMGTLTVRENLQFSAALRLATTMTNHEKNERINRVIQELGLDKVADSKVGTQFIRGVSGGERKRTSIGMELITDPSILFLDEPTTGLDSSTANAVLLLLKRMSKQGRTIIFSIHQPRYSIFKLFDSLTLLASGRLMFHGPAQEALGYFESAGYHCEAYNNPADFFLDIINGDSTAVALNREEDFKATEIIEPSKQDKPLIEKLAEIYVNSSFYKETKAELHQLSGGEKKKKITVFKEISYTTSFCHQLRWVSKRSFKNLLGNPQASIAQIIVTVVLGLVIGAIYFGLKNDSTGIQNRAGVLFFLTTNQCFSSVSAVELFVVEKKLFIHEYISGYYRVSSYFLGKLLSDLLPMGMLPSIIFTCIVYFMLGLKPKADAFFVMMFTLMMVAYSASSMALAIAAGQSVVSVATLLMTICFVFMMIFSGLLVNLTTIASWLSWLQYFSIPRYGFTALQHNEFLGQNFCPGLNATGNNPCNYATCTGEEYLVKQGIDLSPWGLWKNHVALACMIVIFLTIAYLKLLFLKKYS
Method: Figure 2 Effect of Ac15(Az8)2 on intracellular accumulation of BCRP-substrates in S1 and S1M180 cells. Cells were pre-treated with 0.1% DMSO, 100 nM, or 1000 nM Ac15(Az8)2 and then incubated with BCRP substrates. (A) Topotecan accumulation. (B) DOX accumulation. The intracellular level of drug after treatment was normalized to that of S1 cells after incubating with 0.1% DMSO. Student unpaired two-tailed t-test was conducted as indicated (** p < 0.01, *** p < 0.001). (C) To measure DOX efflux, S1M180 cells were pre-incubated with medium containing 20 μM DOX for 1 h at 37 °C. Cells were then washed and further incubated with or without 1 µM of Ac15(Az8)2. At 0, 5, 10, 30, 60, 120, and 180 min, the cells were harvested to measure the intracellular DOX level. (D) To determine intracellular Ac15(Az8)2 concentration, 1 × 10^7 cells were incubated with 1 µM of Ac15(Az8)2 at 37 °C for 2 h. Cells were then washed with ice-cold PBS. To the cell pellet, acetonitrile was added to lyse the cells, and the supernatant was saved for Ac15(Az8)2 determination using UPLC–MS/MS.
Briefly, 1 × 10^6 cells of S1 and S1M180 cells were pre-incubated with 100 nM or 1000 nM Ac15(Az8)2 for 2 h and followed by 50 µM of topotecan or 20 µM of DOX for 1-h incubation. DMSO at 0.1% was used as a negative control. After incubation, the cells were spun down and washed with cold PBS, pH7.4 for 2 times and lysed with 100 μL of lysis buffer (0.75 M HCl, 0.2% Triton-X100 in isopropanol) with vigorous vortex. The lysate was further incubated at 37 °C for 20 min. After incubation, the lysate was spun down, and 100 μL of supernatant was saved and seeded into a black 96-well microtiter plate. The fluorescence level of DOX was determined by a fluorescence microplate reader (BMG Technologies) using excitation and an emission wavelength pair of 460 nm and 610 nm.

BCRP (MCF7-MX100 cells) = conditions: concentration reducing IC50 of anticancer drug by half; mean ± S.D.; ref [42]; read-out: EC50 needed for reversing BCRP-mediated topotecan resistance, MCF7-MX100; cited from earlier work
MRP1 (2008/MRP1 cells) = conditions: mean ± S.D.; ref [42]; read-out: EC50 needed for reversing MRP1-mediated DOX resistance, 2008/MRP1; cited from earlier work
L929 = conditions: normal mouse fibroblast cells; mean ± S.D.; ref [42]; read-out: IC50 towards L929; cited from earlier work

DOX accumulation in S1M180, fold less than parental S1 (BCRP (S1M180 cells))	Compound	IC50 (S1M180 cells; Homo sapiens, S1-M1-80, S1M180 + 0.1% DMSO, mean ± S.D., n = 3, read-out: IC50 of DOX)	RF (Relative Fold), DOX (S1M180 cells; S1M180 + 0.1% DMSO (reference))	IC50 (S1 cells; Homo sapiens, S1 + 0.1% DMSO, mean ± S.D., n = 3, read-out: IC50 of DOX)	RF (Relative Fold), DOX: resistance of S1M180 compared to parental S1 (S1 cells; S1 + 0.1% DMSO vs S1M180 + 0.1% DMSO)	EC50 (BCRP (MCF7-MX100 cells))	EC50 (MRP1 (2008/MRP1 cells))	IC50 (L929)
~4.6 fold	COc1cccc2c1C(=O)c1c(O)c3c(c(O)c1C2=O)C[C@@](O)(C(=O)CO)C[C@@H]3O[C@H]1C[C@H](N)[C@H](O)[C@H](C)O1 [DOX, doxorubicin]	13.4 µM	1.0	0.1 ± 0.02 µM	133.7			
	COc1ccc2c3c([nH]c2c1)[C@H](CC(C)C)N1C(=O)[C@H](CCC(=O)OC(C)(C)C)NC(=O)[C@@H]1C3 [Ko143, reference compound]					[…]	1.95 ± 0.354 µM	29 µM and 29.2 µM
